Measured values published in patent publication US20230027066A1 (Urovant Sciences GmbH, priority 2019, published 2023).

Tests used:
Type in all cases: in vivo, human
[1] = thorough QT study, single doses of 200 and 400 mg, healthy volunteers
[2] = Phase 2b study, vital sign (HR, SBP, DBP) changes and orthostatic AEs
Description: None led to discontinuation. The overall incidence of orthostatic symptoms was low.
Small differences in the percent of subjects exceeding categorical heart rate and blood pressure thresholds for vibegron were similar to those in the tolterodine arm.

[3] = system: men and women with OAB; assay: Phase 2b study of vibegron in OAB, Part 1, efficacy at Week 8 (voiding diary)
Description: Part 2 was designed to continue to assess the safety and efficacy of concomitant dosing. […] Subjects in both Part 1 and Part 2 had the option of enrolling in a 1-year extension. Participants were required to keep a voiding diary, recording the occurrence of each strong urge, total incontinence, and urge incontinence episode. Efficacy data for Part 1 and Part 2 are summarized herein.
The total number of urgency incontinence episodes must have exceeded the total number of stress incontinence episodes for all subjects.

[4] = vibegron 3 mg, OAB Wet subjects
[5] = vibegron 15 mg, OAB Wet subjects
[6] = vibegron 50 mg, OAB Wet subjects

In the case of `O=C(Nc1ccc(C[C@@H]2CC[C@H]([C@H](O)c3ccccc3)N2)cc1)[C@@H]1CCc2nccc(=O)n21` [Vibegron, (6S)-N-[4-[[(2S,5R)−5-[(R)-hydroxy(phenyl)methyl]pyrrolidin−2-yl]methyl]phenyl]−4-oxo−7,8-dihydro−6H-pyrrolo[1,2-a]pyrimidine−6-carboxamide], the “effect on QTc or blood pressure in thorough QT study” value ([1]; human, in vivo) is reported as “no clinically meaningful effect on QTc or blood pressure”, the “AUC, mean ± SD” value ([1]; vibegron 200 mg single dose) is reported as 2430 ± 974 ng·h/mL and the “Maximum mean placebo corrected change from baseline RR interval” value ([1]; vibegron 200 mg single dose) is reported as -84.36 ms. The “Maximum mean placebo corrected change from baseline diastolic BP” value ([1]; vibegron 200 mg single dose) was 2.42 mmHg, the “Maximum mean placebo corrected change from baseline systolic BP” value ([1]; vibegron 200 mg single dose) was 2.20 mmHg and the “AUC, mean ± SD” value ([1]; vibegron 400 mg single dose) was 6800 ± 2300 ng·h/mL. The “Maximum mean placebo corrected change from baseline RR interval” value ([1]; vibegron 400 mg single dose) was -162.45 ms, the “Maximum mean placebo corrected change from baseline diastolic BP” value ([1]; vibegron 400 mg single dose) was 3.99 mmHg and the “Maximum mean placebo corrected change from baseline systolic BP” value ([1]; vibegron 400 mg single dose) was 3.97 mmHg. The “DBP change from baseline, mean (95% CI) maximum, week 1 to 8” value (“DBP change … (95% CI) maximum, week 1 to 8” below) ([2]; vibegron 3 mg) was 5.03 (3.92, 6.15) mm Hg, the “DBP change from baseline, mean (95% CI), week 1” value (shortened to “DBP change … (95% CI), week 1”) ([2]; vibegron 3 mg) was −0.37 (−1.69, 0.95) mm Hg and the “HR change from baseline, mean (95% CI) maximum, week 1 to 8” value (“HR change … (95% CI) maximum, week 1 to 8” below) ([2]; vibegron 3 mg) was 5.57 (4.25, 6.90) bpm. The “HR change from baseline, mean (95% CI), week 1” value (from here on “HR change … (95% CI), week 1”) ([2]; vibegron 3 mg) was 0.36 (−0.90, 1.62) bpm, the “SBP change from baseline, mean (95% CI) maximum, week 1 to 8” value (from here on “SBP change … (95% CI) maximum, week 1 to 8”) ([2]; vibegron 3 mg) was 7.14 (5.18, 9.10) mm Hg and the “SBP change from baseline, mean (95% CI), week 1” value (“SBP change … (95% CI), week 1” below) ([2]; vibegron 3 mg) was −0.35 (−2.34, 1.65) mm Hg. For the same molecule, the “DBP change … (95% CI) maximum, week 1 to 8” value ([2]; vibegron 15 mg) was 6.37 (5.20, 7.53) mm Hg, the “DBP change … (95% CI), week 1” value ([2]; vibegron 15 mg) was 0.03 (−1.52, 1.59) mm Hg and the “HR change … (95% CI) maximum, week 1 to 8” value ([2]; vibegron 15 mg) was 6.56 (5.20, 7.92) bpm. The “HR change … (95% CI), week 1” value ([2]; vibegron 15 mg) was 0.35 (−1.15, 1.85) bpm, the “SBP change … (95% CI) maximum, week 1 to 8” value ([2]; vibegron 15 mg) was 8.93 (7.18, 10.67) mm Hg and the “SBP change … (95% CI), week 1” value ([2]; vibegron 15 mg) was −0.34 (−2.46, 1.78) mm Hg. The “subjects with orthostatic related AEs” value ([2]; vibegron 15 mg) was 0.3%, the “DBP change … (95% CI) maximum, week 1 to 8” value ([2]; vibegron 50 mg) was 4.19 (3.10, 5.29) mm Hg and the “DBP change … (95% CI), week 1” value ([2]; vibegron 50 mg) was −0.70 (−2.07, 0.67) mm Hg. For the same molecule, the “HR change … (95% CI) maximum, week 1 to 8” value ([2]; vibegron 50 mg) was 5.49 (4.28, 6.69) bpm, the “HR change … (95% CI), week 1” value ([2]; vibegron 50 mg) was 0.29 (−0.88, 1.46) bpm and the “SBP change … (95% CI) maximum, week 1 to 8” value ([2]; vibegron 50 mg) was 7.01 (5.31, 8.70) mm Hg. The “SBP change … (95% CI), week 1” value ([2]; vibegron 50 mg) was −0.79 (−2.65, 1.08) mm Hg, the “SBP and DBP, difference between placebo and vibegron in mean changes at Week 1 and mean maximum changes over 8 weeks” value ([2]; vibegron 50 mg and 100 mg) was less than 1 mm Hg and the “DBP change … (95% CI) maximum, week 1 to 8” value ([2]; vibegron 100 mg) was 4.80 (3.88, 5.72) mm Hg. For the same molecule, the “DBP change … (95% CI), week 1” value ([2]; vibegron 100 mg) was −0.69 (−1.72, 0.34) mm Hg, the “HR change … (95% CI) maximum, week 1 to 8” value ([2]; vibegron 100 mg) was 6.12 (5.10, 7.15) bpm and the “HR change … (95% CI), week 1” value ([2]; vibegron 100 mg) was 0.35 (−0.69, 1.38) bpm. For the same molecule, the “SBP change … (95% CI) maximum, week 1 to 8” value ([2]; vibegron 100 mg) was 6.51 (5.09, 7.93) mm Hg, the “SBP change … (95% CI), week 1” value ([2]; vibegron 100 mg) was −0.77 (−2.22, 0.68) mm Hg and the “percent of subjects with a change from baseline in DBP >15 mmHg” value ([2]; vibegron 100 mg) was 1.3%. The “subjects with orthostatic related AEs” value ([2]; vibegron 100 mg) was 1.1%, the “HR, mean maximum changes over 8 weeks, difference to placebo” value ([2]; vibegron, all doses) was less than 2 bpm and the “Micturitions: adjusted difference from placebo at Week 8, difference in LS means (MMRM)” value (from here on “Micturitions: adjusted difference”) ([3]; vibegron 3 mg) was −0.5. For the same molecule, the “Micturitions: difference from placebo at Week 8, difference in LS means (cLDA)” value (shortened to “Micturitions: difference from placebo”) ([3]; vibegron 3 mg) was −0.46, the “Urgency episodes: adjusted difference from placebo at Week 8, difference in LS means (MMRM)” value (shortened to “Urgency episodes: adjusted difference”) ([3]; vibegron 3 mg) was −0.2 and the “Urgency episodes: difference from placebo at Week 8, difference in LS means (cLDA)” value (“Urgency episodes: difference” below) ([3]; vibegron 3 mg) was −0.18. The “Total incontinence episodes: adjusted difference from placebo at Week 8, difference in LS means (MMRM)” value [3, 4] was −0.1, the “Total incontinence episodes: difference from placebo at Week 8, difference in LS means (cLDA)” value (“Total incontinence episodes: difference” below) [3, 4] was −0.18 and the “Urgency incontinence episodes: adjusted difference from placebo at Week 8, difference in LS means (MMRM)” value [3, 4] was −0.2. For the same molecule, the “Urgency incontinence episodes: difference from placebo at Week 8, difference in LS means (cLDA)” value [3, 4] was −0.28, the “Micturitions: adjusted difference” value ([3]; vibegron 15 mg) was −0.5 and the “Micturitions: difference from placebo” value ([3]; vibegron 15 mg) was −0.45. The “Urgency episodes: adjusted difference” value ([3]; vibegron 15 mg) was −0.7, the “Urgency episodes: difference” value ([3]; vibegron 15 mg) was −0.67 and the “Total incontinence episodes: adjusted difference from placebo at Week 8, difference in LS means (MMRM)” value [3, 5] was −0.4. The “Total incontinence episodes: difference” value [3, 5] was −0.48, the “Urgency incontinence episodes: adjusted difference from placebo at Week 8, difference in LS means (MMRM)” value [3, 5] was −0.6 and the “Urgency incontinence episodes: difference from placebo at Week 8, difference in LS means (cLDA)” value [3, 5] was −0.57. The “Micturitions: adjusted difference” value ([3]; vibegron 50 mg) was −0.7, the “Micturitions: difference from placebo” value ([3]; vibegron 50 mg) was −0.64 and the “Urgency episodes: adjusted difference” value ([3]; vibegron 50 mg) was −0.8. For the same molecule, the “Urgency episodes: difference” value ([3]; vibegron 50 mg) was −0.76, the “Total incontinence episodes: adjusted difference from placebo at Week 8, difference in LS means (MMRM)” value [3, 6] was −0.5 and the “Total incontinence episodes: difference” value [3, 6] was −0.60. For the same molecule, the “Urgency incontinence episodes: adjusted difference from placebo at Week 8, difference in LS means (MMRM)” value [3, 6] was −0.7, the “Urgency incontinence episodes: change from baseline at Week 8, mean” value [3, 6] was −1.90 and the “Urgency incontinence episodes: daily number of events, Week 8 mean” value [3, 6] was 0.86. For the same molecule, the “Urgency incontinence episodes: difference from placebo at Week 8, difference in LS means (cLDA)” value [3, 6] was −0.72, the “Micturitions: adjusted difference” value ([3]; vibegron 100 mg) was −0.9 and the “Micturitions: difference from placebo” value ([3]; vibegron 100 mg) was −0.91. For the same molecule, the “Urgency episodes: adjusted difference” value ([3]; vibegron 100 mg) was −1.3 and the “Micturitions, change from baseline at week 8, difference in LS means 100 mg − 50 mg” value ([3]; vibegron 100 mg vs 50 mg) was −0.27.
